Literature values as cited in patent US20040115263A1, “Use of bupropion for treating restless legs syndrome” (priority 2002, published 2004).

How the values were obtained:
[1] = RLS patients

Compound	side effects reported [1]	efficacy in treating RLS (L-dopa given with a peripheral carboxylase inhibitor at a 10:1 ratio, patients)	cases in which augmentation is a complicating feature (human, in vivo)
CC(C)C[C@H]1C(=O)N2CCC[C@H]2[C@]2(O)O[C@](NC(=O)[C@@H]3C=C4c5cccc6[nH]c(Br)c(c56)C[C@H]4N(C)C3)(C(C)C)C(=O)N12 [Bromocriptine]	transient nasal stuffiness and lightheadedness in one patient		
N[C@@H](Cc1ccc(O)c(O)c1)C(=O)O [L-dopa]		effective	65-80%
